In brackets after ≈: the same amount, converted by molar mass.
Tests used:
Daphnia magna = settings: chronic/long-term; duration: 21 days; reproduction
Bibionidae = settings: chronic/long-term, duration: 28 days
Oncorhynchus mykiss = settings: acute; duration: 96 hours; mortality
Pimephales promelas = settings: chronic/long-term; duration: 35 days; growth
Tagia sp. = settings: acute; duration: 14 days; mortality
Aphidius rhopalosiphi = settings: acute; duration: 7 days; mortality
Apis mellifera = settings: acute, mortality

CCCN(CCC)c1c([N+](=O)[O-])cc(C(F)(F)F)cc1[N+](=O)[O-] [Trifluralin]
NOEC (Daphnia magna): 0.0507 mg/L | NOEC (Bibionidae; development): 0.25 mg/L | NOEC (Bibionidae; mortality): 810 mg/kg | LC50 (Oncorhynchus mykiss): 0.088 µg/mL (≈ 0.262 µM) | NOEC (Pimephales promelas): 0.0003 mg/L | LC50 (Tagia sp.): > 1000 mg/kg | LEL (Aphidius rhopalosiphi): 1200 g/ha | LD50 (Rattus norvegicus; acute, oral, mortality): > 5000 mg/kg | LOAEL (Rattus norvegicus; chronic, duration: 2 years, Fischer 344, histopathology: neoplastic): 30 mg/kg-day | NOAEL (Rattus norvegicus; reproduction developmental, reproduction): 148 mg/kg-day | NOAEL (Rattus norvegicus; subchronic, duration: 90 days, oral): 2.6 mg/kg-day | LD50 (Apis mellifera; duration: 48 hours, dermal): > 100 µg/piece | LD50 (Apis mellifera; oral, unspecified): > 80 µg/piece | LC50 (Colinus virginianus; acute, oral, diet, mortality): 574 mg/kg-day | LD50 (Colinus virginianus; acute, oral, mortality): > 2250 mg/kg | NOEC (Colinus virginianus; reproduction developmental): 103 mg/kg-day
